# Results as given in patent publication US20220233661A1, “METHOD OF DETERMINING ELIGIBILITY OF CANCER PATIENT FOR PEPTIDE VACCINE THERAPY” (priority 2019, published 2022).
# Key:
# [1] = system: anti-peptide IgG in plasma; experiment: Test Example 4: peptide-specific IgG titer pre and post vaccination, bead-based multiplexed Luminex assay; format: in vivo, human; conditions: for Pre-vaccination IgG Negative (number of patients) / Pre-vaccination IgG Positive (number of patients): cut off 10 FIU; for Post vaccination IgG: number of (positive) patients among vaccinated: positive IgG response; for Pre-vaccination IgG Negative patients: number of 2,588 patients below 10 FIU; for Pre-vaccination IgG Positive patients: number of 2,588 patients with ≥10 FIU; for Post vaccination IgG: (positive) patients: number of vaccinated patients with positive IgG response; for Correlation between immune responses and OS: Negative (mOS): patients with negative post-vaccination IgG response to the peptide; for Correlation between immune responses and OS: Positive (mOS): patients with positive post-vaccination IgG response to the peptide
# Experimental: As described previously, IgG titer specific to the antigen peptides in plasma was measured by bead-based multiplexed Luminex assay (Luminex, Austin, Tex.) before and after vaccination, i.e., at the end of each cycle or at the end of the clinical trial (Non-Patent Literature 4). In brief, 30 mL of peripheral blood was obtained before and after vaccination. Plasma was incubated with 100 μL of peptide-coupled color-coded beads for 2 hours at 25° C. on a plate shaker. After the incubation, the resultant mixture was washed with a vacuum manifold apparatus and incubated with 100 μL of biotinylated goat anti-human IgG (gamma chain-specific; Vector Laboratories, Burlingame, Calif.) for 1 hour at 25° C. on a plate shaker. The plate was then washed, followed by addition of 100 μL of streptavidin-PE (Life Technologies) to each well, and incubation for 30 minutes at 25° C. on a plate shaker. The resultant beads were washed 4 times, followed by addition of 100 μL of Tween-PBS to each well, and detection of fluorescence intensity units (FIU) on the beads using the Luminex system. The cutoff values of anti-peptide IgG were set to 10 FIU in 100-fold diluted samples.
# Pre-vaccination peptide-specific IgG titers to 31 peptides were measured using a Luminex system. As a detectable IgG level, 10 FIU was employed as the cut off level, as reported previously (Noguchi M, et al., Cancer Immunol Immunother. 2013 May; 62(5): 919-29; Sasada T, et al., Current Medicinal Chemistry. 21: 2332-2345, 2014; Kibe S, et al., Cancer Immunology Research 2014; 2(12): 1154-62).
# Post-vaccination lgG titers were measured at the ends of the first cycle and the second cycle.
# cancer patients = experiment: Test Example 4: correlation between vaccination with individual peptides (or peptide sets) and OS, Cox proportional hazards regression; format: in vivo, human; conditions: for HR: Cox proportional hazards regression, OS; for Correlation between immune responses and OS: Negative (mOS) / Correlation between immune responses and OS: Positive (mOS): Table 20, <64% neutrophil and ≥26% lymphocyte; for Correlation between immune responses and OS: Negative (mOS): vaccinated patients with negative IgG response; for Correlation between immune responses and OS: Positive (mOS): vaccinated patients with positive IgG response
# Experimental: The Student's t-test and the chi-square test were used to compare quantitative and categorical variables, respectively. OS was calculated as the time in months from the date of clinical trial enrollment to death or to the date of last contact. Time-to-event endpoints were analyzed using the Kaplan-Meier method, and between-group comparison for OS was conducted using the log-rank test. Clinical efficacy of the individual peptides for OS was evaluated by univariate and multivariate analyses with the Cox proportional hazards regression model, and HR and 95% CI were calculated. All reported p-values were two-sided, and p-values less than 0.05 were considered significant. JMP version 12 or SAS version 9.4 software (SAS Institute Inc., Cary, N.C.) was used to perform all analyses.
# Correlation levels of the 31 peptides for OS were evaluated by the Cox proportional hazards regression model.
# Similarly, in the 2,085 advanced cancer patients (stage IV+recurrence) and the 503 non-advanced cancer patients (I-III stages) correlation levels of the 31 peptides for OS were evaluated by the Cox proportional hazards regression model. […]
# [2] = Table 20, patients showing both <64% neutrophil and ≥26% lymphocyte
# [3] = patients showing detectable levels
# [4] = patients showing positive responses
# [5] = Table 18, all 2,588 cases, vaccinated vs non-vaccinated
# [6] = Table 18, all 2,588 cases, median OS of patients under PPV containing the peptide
# [7] = Table 18, all 2,588 cases, median OS of patients under PPV not containing the peptide
# [8] = Table 19, 2,085 advanced cancer patients (stage IV+recurrence)
# [9] = Table 19, 2,085 advanced cancer patients (stage IV+recurrence), PPV containing the peptide
# [10] = Table 19, 2,085 advanced cancer patients (stage IV+recurrence), PPV not containing the peptide
# [11] = Table 21, patients showing both <64% neutrophil and ≥26% lymphocyte
# [12] = Table 21, patients showing both <64% neutrophil and ≥26% lymphocyte, PPV containing the peptide
# [13] = Table 21, patients showing both <64% neutrophil and ≥26% lymphocyte, PPV not containing the peptide
# [14] = 2,085 advanced cancer patients (stage IV+recurrence)
Sequence,"Post vaccination IgG Median (FIU) [1, 2]","Pre-vaccination IgG Median (FIU) [1, 2] [FIU]","Pre-vaccination IgG Negative (number of patients) [1, 2]","Pre-vaccination IgG Positive (number of patients) [1, 2]","Post vaccination IgG: number of (positive) patients among vaccinated [1, 2]",Pre-vaccination IgG Negative patients [1],Pre-vaccination IgG Positive patients [1],Post vaccination IgG: (positive) patients [1],"Pre-vaccination IgG Median (FIU) [1, 3] [FIU]","Post vaccination IgG Median (FIU) [1, 4]",Correlation between immune responses and OS: Negative (mOS) [1] [months],Correlation between immune responses and OS: Positive (mOS) [1] [months],HR (cancer patients; [5]),Vaccinate cases (mOS) (cancer patients; [6]),Non-vaccinate cases (mOS) (cancer patients; [7]),HR (cancer patients; [8]),Vaccinate cases (mOS) (cancer patients; [9]),Non-vaccinate cases (mOS) (cancer patients; [10]),Correlation between immune responses and OS: Negative (mOS) (cancer patients) [months],Correlation between immune responses and OS: Positive (mOS) (cancer patients) [months],also measured
VYDYNCHVDL (listed as Homo sapiens) [SART3-109],"9,770 FIU",30,572,494,192(116),"1,382","1,206",474(223),31,"7,875 FIU",10.3,19.0,1.0,474(12.3) M,"1,948(11.5) M",1.0,376(10.6) M,1566(10.2) M,17.1,24.1,HR (cancer patients; [11]): 1.0; Vaccinate cases (mOS) (cancer patients; [12]): 192(19.8) M; Non-vaccinate cases (mOS) (cancer patients; [13]): 796(18.0) M
NVLHFFNAPL (listed as Homo sapiens) [HNRPL-501],"12,553 FIU",48,587,479,148(111),"1,399","1,189",355(223),45,"10,405 FIU",6.6,19.3,1.0,355(12.1) M,"1,107(11.6) M",1.0,291(10.4) M,897(10.3) M,10.6,28.2,HR (cancer patients; [11]): 0.9; Vaccinate cases (mOS) (cancer patients; [12]): 148(19.6) M; Non-vaccinate cases (mOS) (cancer patients; [13]): 445(17.5) M
GIHKQKEKSR (listed as Homo sapiens) [PAP-248],"1,981 FIU",38,543,523,64(31),"1,302","1,286",147(62),37,"2,136 FIU",9.9,21.1,1.0,147(11.4) M,"1,067(11.1) M",0.8,124(10.1) M,845(9.9) M,13,21.3,"median OS of patients with the peptide vs patients without it (cancer patients; 1,066 patients with <64% neutrophil and ≥26% lymphocyte): shorter; HR (cancer patients; [11]): 1.1; Vaccinate cases (mOS) (cancer patients; [12]): 64(15.5) M; Non-vaccinate cases (mOS) (cancer patients; [13]): 443(17.6) M"
DYSARWNEI (listed as Homo sapiens) [SART2-93],"8,633 FIU",64,141,925,467(183),340,"2,248",1137(362),66,"3,435 FIU",12.3,21.7,0.9,"1,137(12.3) M",413(11.5) M,1.0,906(10.7) M,340(10.2) M,17.3,24.7,"positive rate of patients showing ≥10 FIU, pre-vaccination peptide-specific IgG ([1]; 2,588 patients, pre-vaccination): 87%; HR (cancer patients; [11]): 1.0; Vaccinate cases (mOS) (cancer patients; [12]): 467(19.0) M; Non-vaccinate cases (mOS) (cancer patients; [13]): 158(17.6) M"
ASLDSDPWV (listed as Homo sapiens) [WHSC2-103],916 FIU,40,381,685,289(105),915,"1,673",729(222),43,827 FIU,12.1,19.6,1.0,729(11.5) M,"1,465(11.6) M",1.0,581(10.2) M,1193(10.3) M,14.4,27.1,HR (cancer patients; [11]): 1.0; Vaccinate cases (mOS) (cancer patients; [12]): 289(17.6) M; Non-vaccinate cases (mOS) (cancer patients; [13]): 617(18.0) M
ALVEFEDVL (listed as Homo sapiens) [HNRPL-140],"7,150 FIU",37,505,561,103(68),"1,293","1,295",200(111),39,"8,576 FIU",9.8,23.9,0.8,200(12.9) M,850(11.1) M,0.8,162(12.1) M,700(10.0) M,10.4,26.2,"median OS of non-vaccinated cases (cancer patients; [14]): 10 months; median OS of vaccinated cases (cancer patients; [14]): 12.1 months; HR (cancer patients; [11]): 0.8; Vaccinate cases (mOS) (cancer patients; [12]): 103(19.0) M; Non-vaccinate cases (mOS) (cancer patients; [13]): 331(15.6) M; median OS of vaccinated cases (cancer patients; all 2,588 cases, PPV containing the peptide): 12.9 months; median OS of non-vaccinated cases (cancer patients; all 2,588 cases, PPV not containing the peptide): 11.1 months"
